Results: patent US20120225093A1, “Abrogating HIV-1 Infection via Drug-Induced Reactivation of Apoptosis” (UNIVERSITY OF MEDICINE AND DENTISTRY OF NEW JERSEY, priority 2010, published 2012)

Columns and labels:
HIV p24 = experiment: p24 expression from pNL4-3-LucE- molecular clone in 293T cells; type: cell-based, HIV-1; details: 293T cell extract; 12 hr post-transfection
Method: FIGS. 3A-D are a set of diagrams and photographs showing drug effects on luciferase expression from an HIV-1 molecular clone. A. Comparison of drug effects on luciferase expression from the pNL4-3-LucE- molecular clone in 293T cells. The molecular clone pNL4-3-LucE- and pCMV-Ren were transfected into 293T cells. Drugs were added where indicated at the following concentrations: P2 (30 μM), CPX (30 μM), DEF (250 μM), or DFOX (15 μM). Dual luciferase assays were conducted at 12 hr post-transfection. Firefly (FF) luciferase expression was normalized to Renilla luciferase (Ren) from pCMV-Ren (mean of 2 experiments in duplicate, ±SD). B. Expression in Jurkat cells was assayed essentially as in panel A. C. Firefly and Renilla luciferase RNA expression was analyzed in 293T cells treated as in panel A by RPA using 32P-[UTP] labeled antisense RNA probes corresponding to the C-termini of the FF and Ren luciferase mRNAs. D. Comparison of drug effects on p24 expression from the pNL4-3-LucE- molecular clone in 293T cells. Drugs were added where indicated to the same concentrations as in A. p24 levels were determined in cell extract at 12 hr post-transfection.
p24 core antigen in the supernatant was quantified by ELISA (Retrotek HIV-1 p24™; ZeptoMetrix Corp.; Buffalo, N.Y.). HIV-1 RNA copy number in the supernatant was determined with a PCR-based and FDA-approved assay (Amplicor HIV-1 Monitor™; Roche Diagnostics Corp.; Indianapolis, Ind.). IFN-γ and IL-10 in the supernatant were determined by cytometric bead array (Human Th1/Th2 Cytokine Kit II™; BD Biosciences Pharmingen, San Jose, Calif.).

HIV-1 RNA = experiment: RNase protection assay of HIV RNA from molecular clones in 293T cells; type: cell-based; details: for accumulation of FF mRNA: pNL4-3-LucE- in 293T; for reduction of spliced and unspliced HIV RNAs: pNL4-3-LucE-, cytoplasmic and nuclear fractions, 12 hr
Method: 293T cells (2×10^6 cells) were seeded in 10-cmdiameter plates and transfected 20 hr later by using Transfectene (Bio-Rad) and treated with compounds. Cells were harvested at 15 hr post-transfection and suspended in a low salt buffer (10 mM Tris.HCl pH 7.4, 10 mM NaCl, 1.5 mM MgCl2, and 0.5% NP-40). Cells were vortexed for 10 sec and incubated on ice for 10 min. Cell extracts were centrifuged at 500×g for 3 min, followed by cytoplasmic and nuclear RNA isolation from the supernatant and the pellet, respectively, using Trizol (Invitrogen) according to the manufacturer's instructions.
RPA was performed with 10 μg of cytoplasmic RNA and 5 μg of nuclear RNA, using the RPAIII kit from Ambion (Austin, Tex.) according to the manufacturer's instructions. Synthesis of radiolabeled RNA and protection assays were performed as described in Young et al. Mol Cell Biol 2003, 23:6373-6384. To generate antisense RNA probe against the HIV-1 major splice site, firefly luciferase and Renilla luciferase pBSII-KS+HIV (+80-341), pSP-luc and pSP-rluc were linearized with HindIII, XbaI and BsaI, respectively. The resulting probes were 309, 390 and 245 nt long, respectively. The antisense HIV-1 leader RNA probe complementary to nt+83 to −117 of the LTR was generated by subcloning between the XbaI and HindIII sites of the pcDNA3.1 vector. Antisense probe corresponding to the N terminus of eIF5A was generated by subcloning 250 nt of its cDNA sequence into pcDNA3.1.
Next, the effects of CPX and DEF on viral mRNA expression were examined. […] To determine whether the action of CPX and DEF is exerted at the level of the accumulation, splicing or nucleo-cytoplasmic distribution of HIV RNA, pNL4-3-LucE- was transfected into 293T cells and monitored spliced and unspliced HIV RNA after drug treatment. RNase protection assays were carried out using a probe complementary to the 5′ region of all HIV-1 transcripts (Zheng et al. Nat Cell Biol 2003, 5:611-618). The probe spans the major splice donor site so two sizes of protected fragments are generated: unspliced RNA protects an RNA fragment 50 nucleotides (nt) longer than that from spliced RNAs (FIG. 4A). CPX and DEF, but not P2, reduced the level of both spliced and unspliced RNAs by ˜50% (FIG. 4B). […] In contrast, the production of Renilla luciferase RNA driven by the CMV promoter was unchanged in the nucleus and cytoplasm after drug treatment (FIG. 4B). […]
The rev-defective molecular clone pMRev(−) contains the entire HIV-1 genome but Rev expression is prevented by substitutions in its initiation codon. To compare the inhibitory effect of CPX and DEF in the presence and absence of Rev, cells were transfected with pMRev(−), either with or without a Rev expression vector, and RNA was analyzed by RPA as above. […]

[1] = target: T1, deoxyhypusine hydroxylase (Homo sapiens, UniProt Q9BU89); experiment: Deoxyhypusine hydroxylase activity in H9-HIV cells (peptide-bound hypusine / deoxyhypusine); type: cell-based
T1 construct: endogenous in cells; host or cells: H9-HIV cells (H9 infected with HIV-1 HTLV-IIIB)
T1 sequence (Q9BU89 1-302): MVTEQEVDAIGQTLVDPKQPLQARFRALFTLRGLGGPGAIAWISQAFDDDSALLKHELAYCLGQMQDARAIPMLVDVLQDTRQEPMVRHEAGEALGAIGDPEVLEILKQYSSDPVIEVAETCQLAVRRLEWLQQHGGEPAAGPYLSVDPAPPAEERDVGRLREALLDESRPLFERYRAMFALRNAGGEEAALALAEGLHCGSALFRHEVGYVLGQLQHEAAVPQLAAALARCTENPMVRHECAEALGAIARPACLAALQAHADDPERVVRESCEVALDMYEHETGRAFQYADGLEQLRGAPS
Source text: FIGS. 11A-D are a set of diagrams showing drug-activated apoptosis and iron chelation. A. Covalent structures of the medicinal chelators DFOX and DEF, and of the antifungal agent CPX and its chelation homolog Agent P2. DFOX, CPX, and Agent P2 interact with iron via a hydroxamate moiety, similar to the chelating domain of DEF. Arrows indicate the uniform bidentate mode of metal binding. DFOX contains three of these moieties and is a hexadentate chelator. B. Effect of drugs and Agent P2 on the expression of iron-dependant (IRE; hatched bars) and retrovirally-encoded (HIV; filled bars) gene expression in transfected 293T cells. Results are expressed relative to untreated controls. C. […] Triangles, peptide-bound hypusine; squares, peptide-bound deoxyhypusine. D. Induction of apoptosis by CPX and by DFOX. H9-HIV cells were treated for 24 hr and then assayed by flow cytometry using TUNEL. Results are expressed as percentage of cells that are TUNEL-positive (±SEM).

| SMILES | inhibition of HIV p24 expression from the molecular clone (HIV p24) | accumulation of FF mRNA (HIV-1 RNA) | reduction of spliced and unspliced HIV RNAs (HIV-1 RNA) | inhibition of deoxyhypusine hydroxylase activity / eIF5A hydroxylation [1] |
| --- | --- | --- | --- | --- |
| Cc1cc(C2CCCCC2)n(O)c(=O)c1 [CPX, 6-cyclohexyl-1-hydroxy-4-methylpyridin-2[1H]-one] | ~60% | decreased accumulation of FF mRNA | ~50% | Dose-dependent inhibition of deoxyhypusine hydroxylase activity |
| Cc1c(O)c(=O)ccn1C [DEF, 3-hydroxy-1,2-dimethylpyridin-4(1H)-one] | ~60% | decreased accumulation of FF mRNA | ~50% |  |
| Cc1ccn(O)c(=O)c1 [Agent P2, 1-hydroxy-4-methylpyridin-2[1H]-one] |  |  |  | failed to inhibit eIF5A hydroxylation in vivo or in vitro |
